Test results: BindingDB's records for patent US12503484 (Seismic Pharmaceuticals, 2025)

Target: Sodium/potassium-transporting ATPase subunit alpha-1 (Canis lupus familiaris, UniProt P50997)
Assay: Inhibition of Dog Renal Na+/K+ ATPase Activity
Description: Increasing concentrations of the standard ouabain, or tested compound, were incubated with 0.3 μg of purified dog kidney enzyme for 10 min at 37° C. in 120 μl final volume of a medium containing 140 mM NaCl, 3 mM MgCl2, 50 mM Hepes-Tris, 3 mM ATP, pH 7.5. Then, 10 μl of a solution containing 10 mM KCl and 20 nCi of 32P-ATP (3-10 Ci/mmol, Perkin Elmer) were added. The reaction was allowed to continue for 15 min at 37° C. and then stopped by acidification with 20% v/v ice-cold perchloric acid. 32P was separated by centrifugation with activated Charcoal (Norit A, Serva) and the radioactivity was counted. The inhibitory activity was expressed as percent of the control samples carried out in the absence of ouabain, or tested compound.

Compound | IC50
CCCC(=O)OCCC1CC[C@@]2(C)C(C1)[C@@H](O)C[C@@H]1[C@@H]2CC[C@]2(C)C(=O)CC[C@@H]12 (some centres not stated) [US12503484, Compound CVie217] | > 100 µM
CCCCC(C(=O)O)C1CC[C@@]2(C)C(C1)[C@H](O)C[C@@H]1[C@@H]2CC[C@]2(C)C(=O)CC[C@@H]12 (some centres not stated) [US12503484, Compound CVie219] | > 100 µM
